Source: ChEMBL document CHEMBL5724914, “Linking interpersonal differences in gut microbiota composition and drug biotransformation activity” (2024)

What was measured:
[1] = (§1) The drug is tested on Z-020 corresponding to rabbit gut metagenome with ENA study accession number: PRJEB37062 and ENA sample accession number: ERS12561819 for biotransformation under anaerobic condition. The drug concentrations were measured over 9 timepoints collected between 0 and 24 hours of incubation by liquid-chromatography-coupled mass spectrometry (LC–MS); details: 2 µM
[2] = human gut metagenome, 24 h, 2 µM
[3] = human gut metagenome, 24 h, 2 µM; remark: listed apart in the source
[4] = human gut metagenome, 24 h, 2 µM; remark: listed apart in the source
[5] = human gut metagenome, 24 h, 2 µM; remark: listed apart in the source
[6] = as §1, with “Z-013” for “Z-020”, “ERS12561813” for “ERS12561819”; details: 2 µM
[7] = as §1, with “Z-029” for “Z-020”, “rat” for “rabbit”, “ERS12561828” for “ERS12561819”; details: 2 µM
[8] = as §1, with “WLS-310” for “Z-020”, “human” for “rabbit”, “ERS12561785” for “ERS12561819”; details: 2 µM
[9] = as §1, with “WLS-077” for “Z-020”, “human” for “rabbit”, “ERS12561750” for “ERS12561819”; details: 2 µM
[10] = as §1, with “WLS-098” for “Z-020”, “human” for “rabbit”, “ERS12561754” for “ERS12561819”; details: 2 µM
[11] = as §1, with “WLS-350” for “Z-020”, “human” for “rabbit”, “ERS12561789” for “ERS12561819”; details: 2 µM
[12] = human gut metagenome, 24 h, 2 µM; remark: listed apart in the source
[13] = as §1, with “WLS-052” for “Z-020”, “human” for “rabbit”, “ERS12561747” for “ERS12561819”; details: 2 µM
[14] = human gut metagenome, 24 h, 2 µM; remark: listed apart in the source
[15] = as §1, with “Z-025” for “Z-020”, “ERS12561824” for “ERS12561819”; details: 2 µM
[16] = as §1, with “WLS-010” for “Z-020”, “human” for “rabbit”, “ERS12561743” for “ERS12561819”; details: 2 µM
[17] = human gut metagenome, 24 h, 2 µM; remark: listed apart in the source
[18] = as §1, with “Z-003” for “Z-020”, “pig” for “rabbit”, “ERS12561803” for “ERS12561819”; details: 2 µM
[19] = as §1, with “Z-014” for “Z-020”, “rat” for “rabbit”, “ERS12561814” for “ERS12561819”; details: 2 µM
[20] = human gut metagenome, 24 h, 2 µM; remark: listed apart in the source
Note: call rule not given here.

Row | Bacterial Biotransformation [1] | Bacterial Biotransformation [2] | Bacterial Biotransformation [3] | Bacterial Biotransformation [4] | Bacterial Biotransformation [5] | Bacterial Biotransformation [6] | Bacterial Biotransformation [7] | Bacterial Biotransformation [8] | Bacterial Biotransformation [9] | Bacterial Biotransformation [10] | Bacterial Biotransformation [11] | Bacterial Biotransformation [12] | Bacterial Biotransformation [13] | Bacterial Biotransformation [14] | Bacterial Biotransformation [15] | Bacterial Biotransformation [16] | Bacterial Biotransformation [17] | Bacterial Biotransformation [18] | Bacterial Biotransformation [19] | Bacterial Biotransformation [20] | SMILES
1 | Compound NOT metabolized | Compound metabolized | Compound metabolized | Compound metabolized | Compound metabolized | Compound NOT metabolized | Compound NOT metabolized | Compound metabolized | Compound NOT metabolized | Compound NOT metabolized | Compound NOT metabolized | Compound NOT metabolized | Compound metabolized | Compound NOT metabolized | Compound metabolized | Compound metabolized | Compound NOT metabolized | Compound NOT metabolized | Compound NOT metabolized | Compound metabolized | CC[C@H](C)C(=O)O[C@H]1CCC=C2C=C[C@H](C)[C@H](CC[C@@H]3C[C@@H](O)CC(=O)O3)[C@H]21 [MEVASTATIN]
2 | Compound NOT metabolized | Compound metabolized | Compound metabolized | Compound NOT metabolized | Compound NOT metabolized | Compound NOT metabolized | Compound NOT metabolized | Compound metabolized | Compound NOT metabolized | Compound metabolized | Compound metabolized | Compound metabolized | Compound metabolized | Compound metabolized | Compound NOT metabolized | Compound metabolized | Compound metabolized | Compound NOT metabolized | Compound NOT metabolized | Compound metabolized | COc1ccc2cc([C@H](C)C(=O)O)ccc2c1 [NAPROXEN]
3 | Compound NOT metabolized | Compound NOT metabolized | Compound metabolized | Compound metabolized | Compound metabolized | Compound NOT metabolized | Compound metabolized | Compound metabolized | Compound metabolized | Compound metabolized | Compound metabolized | Compound metabolized | Compound metabolized | Compound metabolized | Compound NOT metabolized | Compound metabolized | Compound NOT metabolized | Compound NOT metabolized | Compound NOT metabolized | Compound metabolized | C#C[C@]1(OC(C)=O)CC[C@H]2[C@@H]3CCC4=C/C(=N/O)CC[C@@H]4[C@H]3CC[C@@]21CC [NORGESTIMATE]
4 | Compound metabolized | Compound metabolized | Compound metabolized | Compound metabolized | Compound metabolized | Compound metabolized | Compound metabolized | Compound metabolized | Compound metabolized | Compound metabolized | Compound metabolized | Compound metabolized | Compound metabolized | Compound metabolized | Compound metabolized | Compound metabolized | Compound NOT metabolized | Compound NOT metabolized | Compound NOT metabolized | Compound metabolized | COc1ccnc(C[S+]([O-])c2nc3ccc(OC(F)F)cc3[nH]2)c1OC (stereo not given) [PANTOPRAZOLE]
5 | Compound metabolized | Compound metabolized | Compound metabolized | Compound metabolized | Compound metabolized | Compound NOT metabolized | Compound metabolized | Compound metabolized | Compound metabolized | Compound metabolized | Compound metabolized | Compound NOT metabolized | Compound metabolized | Compound metabolized | Compound NOT metabolized | Compound metabolized | Compound NOT metabolized | Compound metabolized | Compound NOT metabolized | Compound metabolized | C[C@]12C=CC(=O)C=C1CC[C@@H]1[C@@H]2C(=O)C[C@@]2(C)[C@H]1CC[C@]2(O)C(=O)CO [PREDNISONE]
6 | Compound NOT metabolized | Compound NOT metabolized | Compound metabolized | Compound metabolized | Compound NOT metabolized | Compound NOT metabolized | Compound NOT metabolized | Compound metabolized | Compound NOT metabolized | Compound metabolized | Compound metabolized | Compound NOT metabolized | Compound NOT metabolized | Compound metabolized | Compound metabolized | Compound NOT metabolized | Compound NOT metabolized | Compound NOT metabolized | Compound NOT metabolized | Compound metabolized | CN(CCOc1ccc(CC2SC(=O)NC2=O)cc1)c1ccccn1.O=C(O)/C=C\C(=O)O (stereo not given) [ROSIGLITAZONE MALEATE]
7 | Compound NOT metabolized | Compound metabolized | Compound metabolized | Compound NOT metabolized | Compound metabolized | Compound NOT metabolized | Compound NOT metabolized | Compound metabolized | Compound metabolized | Compound metabolized | Compound metabolized | Compound metabolized | Compound metabolized | Compound NOT metabolized | Compound NOT metabolized | Compound metabolized | Compound NOT metabolized | Compound NOT metabolized | Compound NOT metabolized | Compound metabolized | CC(C)c1nc(N(C)S(C)(=O)=O)nc(-c2ccc(F)cc2)c1/C=C/[C@@H](O)C[C@@H](O)CC(=O)[O-].CC(C)c1nc(N(C)S(C)(=O)=O)nc(-c2ccc(F)cc2)c1/C=C/[C@@H](O)C[C@@H](O)CC(=O)[O-].[Ca+2] [ROSUVASTATIN CALCIUM]
8 | Compound metabolized | Compound metabolized | Compound metabolized | Compound metabolized | Compound metabolized | Compound metabolized | Compound metabolized | Compound metabolized | Compound metabolized | Compound metabolized | Compound metabolized | Compound metabolized | Compound NOT metabolized | Compound metabolized | Compound metabolized | Compound metabolized | Compound metabolized | Compound metabolized | Compound metabolized | Compound metabolized | O=C(O)c1cc(/N=N/c2ccc(S(=O)(=O)Nc3ccccn3)cc2)ccc1O [SULFASALAZINE]
